# Measurements from patent US12187663B2, “Thyromimetics with a biphenylmethane scaffold and their use” (INTERNATIONAL SOCIETY FOR DRUG DEVELOPMENT S.R.L., priority 2019, dated 2025).
# Key:
# HepG2 cells [1] = assay: Total lipid accumulation by Oil Red O staining; type: cell-based, Human; conditions: 25 μM
# Method: Total lipid accumulation was evaluated according to the method previously described by Liu et al.. […] Cloroquine (25 μM) and Isoproterenol (10 μM) were used as positive controls. Subsequently, after collecting the growth media to be used to perform glycerol level measurements (as detailed below), cells were rinsed twice with PBS and fixed in 4% paraformaldehyde in PBS for 30 min. Then, cells were stained with Oil Red O working solution for 1 h at room temperature and subsequently rinsed with water.
# The Oil Red O stock solution was prepared by dissolving 0.35 g of Oil Red O (Sigma Aldrich, Milan, Italy) in 100 mL of isopropanol by gentle heating and then cooled and filtered through a 0.45 μm filter. The working solution was prepared by diluting three parts of the stock solution in two parts of MilliQ water (stock solution:MilliQ water; 3:2 v/v). The cell images were captured with a Leitz Fluovert FU (Leica Microsystems, Wetzlar, Germany) microscope. Lipids appeared red. For quantitative analysis of cellular lipids, 1 mL isopropanol was added to each well of the stained culture plate. The extracted dye was immediately removed by gentle pipetting and its absorbance was measured at 510 nm.
# AMPK = assay: Western blot of phosphorylated AMPK in HepG2 cells; type: cell-based, Human; conditions: twenty-four hours of treatment, dose dependent
# Method: (§1) Human hepatocellular carcinoma cells (HepG2), obtained from American Type Culture Collection (Manassas, Va., USA), were cultured in low-glucose (LG) Dulbecco's modified Eagle's medium (DMEM) ([…], Invitrogen, Carlsbad, Calif., USA) or high-glucose (HG) DMEM ([…]) supplemented with 10% fetal bovine serum (FBS) and […] penicillin/streptomycin in an atmosphere of 5% CO2 at 37° C. These cells were then treated with tested compounds at various concentrations for 24 h. After treatments, cells were lysed in a buffer containing 20 mM Tris-HCl (pH 7.5), 0.9% NaCl, 0.2% Triton X-100, and 1% of the protease inhibitor cocktail (Sigma-Aldrich, Milan, Italy) and then stored at −80° C. for further western blot analysis. All the analyses were conducted on cells between the third and the sixth passage.
# (§2) Proteins (20-30 μg) were separated on CriterionTGX™ gel (4-20%) and transferred on Immuno-PVDF membrane (Biorad, Milan, Italy) for 1 h. Blots were incubated with the primary antibody at 4° C. overnight. All the polyclonal antibodies for the protein of interest were purchased from Santa Cruz Biotechnology, Inc., Dallas, TX, USA. Then, blots were washed 3 times for 10 minutes with 1×TBS, 0.1% Tween® 20 and incubated for 1 h with secondary antibody (peroxidase-coupled anti rabbit in 1×TBS, 0.1% Tween®20). […] Band densitometric analysis was performed using Image Lab Software (Biorad, Milan, Italy).
# (§3) The liver is a major organ responsible for most functions of cellular metabolism and a mediator between dietary and endogenous sources of energy for extrahepatic tissues. In this context, AMPK constitutes an intrahepatic energy sensor regulating physiological energy dynamics by limiting anabolism and stimulating catabolism, thus increasing ATP availability. Once activated, AMPK phosphorylates its downstream substrates to reduce ATP-consuming anabolic pathways, including cholesterol, fatty acid, and triacylglycerol synthesis, and increases ATP-generating catabolic pathways, including fatty acid oxidation and lipolysis. […]
# ACC = assay: Western blot of phosphorylated ACC in HepG2 cells; type: cell-based, Human; conditions: twenty-four hours of treatment
# Method: as §1, §2, §3
# HepG2 cells [2] = assay: Cell viability MTT assay; type: cell-based; conditions: 1-10 μM, 24 h
# Method: HepG2 cells were seeded in a 96-well plate (Corning, USA) at a density of 1.0×10^4 cells/well with DMEM (200 μl/well), and then incubated for 24 h according to routine procedure. After being treated with test compounds (1-10 μM) and incubated for 24 h (8 wells for each sample), 20 μL/well MTT (5 g/L) was added to each well. The medium was then removed after 4 h incubation and 100 μL/well sodium dodecyl sulfate (SDS)-HCl solution was added to dissolve the reduced formazan product after incubation for 16 h at 37° C. Finally, the plate was read at 570 nm, using a micro-plate reader (Bio-Rad 680, USA).
# pancreatic acinar cells = assay: Pancreatic acinar cell proliferation (BrdU labeling index); type: in vivo, rats; conditions: one week; T3 4 mg/kg diet; GC1 50 μg/kg gavage once daily; TG68 and IS25 50 μg/kg in drinking water
# Method: FIG. 9. […] BrdU (1 mg/ml) in drinking water was given all throughout the experimental time. […] LI was expressed as number of BrdU-positive acinar cell nuclei/100 nuclei. At least 2000 acinar cells per pancreas were scored. Results are expressed as means±SE of 3 to 5 rats per group. (one way ANOVA). ***Statistically significant from control; P<0.001.
# BrdU (1 mg/ml) in drinking water was given all throughout the experimental time. […] LI was expressed as number of BrdU-positive acinar cell nuclei/100 nuclei. At least 2000 acinar cells per pancreas were scored.
# [3] = known property of the reference; cited from earlier work
structure (smiles),measurement,setting,value
CCN(CC)CCCC(C)Nc1ccnc2cc(Cl)ccc12 (stereo not drawn) [Cloroquine],"red lipid droplets (Oil Red O), steatosis-inducing positive control",HepG2 cells [1],high amount of red lipid droplets
"N[C@@H](Cc1cc(I)c(Oc2ccc(O)c(I)c2)c(I)c1)C(=O)O [Compound T3, 3,5,3′-triiodothyronine, reference compound]",expression of p-AMPK,AMPK,significantly (p<0.05) increased
same,ACC phosphorylation (p-ACC),ACC,significant ACC phosphorylation
same,cell viability (cell death with respect to control),HepG2 cells [2],did not significantly (p<0.05) cause cell death
"Cc1cc(OCC(=O)O)cc(C)c1Cc1ccc(O)c(C(C)C)c1 [GC-1, Sobetirome, reference compound]",pancreatic acinar cell proliferation (BrdU-positive acinar cells),pancreatic acinar cells,Several BrdU-positive acinar cells were observed
same,solubility in water,[3],insoluble compound in water
